# Data published in patent publication US20120046249A1, “METHODS OF REDUCING THE RISK OF CARDIOVASCULAR DISEASE IN POSTMENOPAUSAL WOMEN” (priority 2008, published 2012).
# Assays:
# Format in all cases: in vivo, human
# [1] = system: MMP-2; assay: Serum MMP-2 by gelatin zymography, 2-year randomized clinical trial of SDD versus placebo; conditions: per-protocol analysis, p=0.03, SDD minus placebo
# Description: (§1) Elevated circulating MMP 9 has been associated with increased risk for fatal cardiac events and PM are considered a population vulnerable, due to decreased estrogen levels, to cardiovascular disease.
# (§2) Details concerning subject inclusion and exclusion criteria have been published previously (Payne et al., J. Clin. Periodontol. 34:776-787, 2007). Briefly, subjects were 45-70 years of age at telephone screening, postmenopausal, osteopenic at the lumbar spine or femoral neck, and not receiving hormone replacement therapy (HRT). […] The subjects also had to be in good general health without co-morbidities that could have interfered with adherence to the study protocol, planned follow-up or endpoint measurement.
# (§3) 113 PM women who completed the randomized clinical trial (RCT) consented at the final (two-year) study visit for the analysis of stored serum samples. 51 subjects received SDD (20 mg doxycycline) and 62 received placebo tablets b.i.d. for 2 years. Serum samples were collected at the baseline, 1-year and 2-year appointments and frozen at −80° C. until analyzed. MMPs were measured by gelatin zymography using denatured type I collagen as a substrate and purified MMP-2 (72 kDa) and MMP-9 (92 kDa) as standards. Gelatinolytic bands were scanned densitometrically. Statistical analyses were performed using Generalized Estimating Equations. Primary analyses were intent-to-treat (ITT). […]
# [2] = Serum lipids (commercial laboratory), 2-year RCT of SDD versus placebo; conditions: subgroup: women more than 5 years postmenopausal
# Description: (§4) The objective of this study was to determine whether sub-antimicrobial-dose-doxycycline (SDD) can reduce serum inflammatory biomarkers associated with cardiovascular disease (CVD) risk (primary outcome: CRP) in a two-year, randomized controlled clinical trial (RCT) in postmenopausal (PM) women with systemic osteopenia and periodontitis. 113 women who completed the RCT (SDD group: n=51; placebo group: n=62) consented at the final (two-year) study visit for their baseline, one-year and two-year serum samples to be analyzed for serum inflammatory biomarkers. Analyses by ELISA included CRP (high-sensitivity ELISA), IL-6, myeloperoxidase (MPO), IL-1β and TNF-α. Serum lipids (total cholesterol, HDL cholesterol, LDL cholesterol, VLDL cholesterol, and triglycerides) were analyzed by a commercial laboratory. Statistical analyses were performed using Generalized Estimating Equations; primary analyses were intent-to-treat (ITT). Pre-specified subgroup analyses also were performed. All results are presented as ratios of median values (SDD versus placebo) unless otherwise indicated.
# [3] = system: CRP; assay: Serum CRP by high-sensitivity ELISA, 2-year RCT of SDD versus placebo; conditions: intent-to-treat
# Description: The objective of this study was to determine whether sub-antimicrobial-dose-doxycycline (SDD) can reduce serum inflammatory biomarkers associated with cardiovascular disease (CVD) risk (primary outcome: CRP) in a two-year, randomized controlled clinical trial (RCT) in postmenopausal (PM) women with systemic osteopenia and periodontitis.
# as §4, with “113” for “The objective of this study was to determine whether sub-antimicrobial-dose-doxycycline (SDD) can reduce serum inflammatory biomarkers associated with cardiovascular disease (CVD) risk (primary outcome: CRP) in a two-year, randomized controlled clinical trial (RCT) in postmenopausal (PM) women with systemic osteopenia and periodontitis. 113”
# [4] = system: MMP-8/TIMP-1; assay: Median MMP-8/TIMP-1 ratio, further analysis of the 2-year RCT; conditions: women within five years of menopause, at two years
# [5] = system: MMP-9; assay: Serum MMP-9 by gelatin zymography, 2-year randomized clinical trial of SDD versus placebo; conditions: postmenopausal osteopenic women with periodontitis, 20 mg doxycycline b.i.d. for 2 years, 92 kDa gelatinase
# Description: as §1, §2, §3
smiles,measurement,setting,value
"C[C@H]1c2cccc(O)c2C(=O)C2=C(O)[C@]3(O)C(=O)C(C(N)=O)=C(O)[C@@H](N(C)C)[C@@H]3[C@@H](O)[C@@H]21 [SDD, 6α-deoxy-5-hydroxytetracycline]","reduction of serum MMP-2, 2-year values (average)",[1],16.5 units
same,"VLDL cholesterol, ratio of median values (SDD versus placebo)","[2]; 95% CI 0.76 to 1.00, p=0.06",0.87
same,"triglycerides, ratio of median values (SDD versus placebo)","[2]; 95% CI 0.76 to 1.01, p=0.06",0.87
same,increase in HDL cholesterol over time (difference in means),"[2]; 95% CI 1.17 to 10.81, p=0.01",5.99 mg/dL
same,reduction of median CRP levels compared to placebo,"[3]; 2-year RCT, serum",18%
same,"CRP, ratio of median values (SDD versus placebo)","[3]; 95% CI 0.70 to 0.97, p=0.02",0.82
same,reduction of median MMP-8/TIMP-1 ratio,[4],49%
same,"MMP-8/TIMP-1, ratio of medians (SDD relative to placebo)","[4]; 95% CI 0.31 to 0.82, p=0.006",0.51
same,"reduction of serum MMP-9 levels (difference in means, SDD minus placebo)",[5]; intent-to-treat analysis,28.4 scanning units
same,"reduction of serum MMP-9 levels (difference in means, SDD minus placebo)",[5]; per-protocol analysis,29.4 scanning units
